Drawing on US8957074B2 (Novartis AG, priority 2010, dated 2015), this text covers IC50 for 8 compounds.

Like-named read-outs stand apart in the source and are kept apart here.

For one assay, the target named is CDK4/cyclin D1 (Homo sapiens (Human), UniProt P11802). Nature of the assay: CDK4/cyclin D1 enzymatic activity assay (TR-FRET, phosphorylation of pRb at Ser780). In kind it is biochemical. Summed up: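 Phosphorylation at pRb Ser780, detected by TR-FRET, gave IC50s and kinetics. Enzyme: baculovirus/Sf21-expressed human CDK4/cyclin D1. ATP at 3 μM initiated the reaction; EDTA (pH 8.0) stopped it after 60 min at 22° C.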
Chain of CDK4/cyclin D1 (P11802 whole entry): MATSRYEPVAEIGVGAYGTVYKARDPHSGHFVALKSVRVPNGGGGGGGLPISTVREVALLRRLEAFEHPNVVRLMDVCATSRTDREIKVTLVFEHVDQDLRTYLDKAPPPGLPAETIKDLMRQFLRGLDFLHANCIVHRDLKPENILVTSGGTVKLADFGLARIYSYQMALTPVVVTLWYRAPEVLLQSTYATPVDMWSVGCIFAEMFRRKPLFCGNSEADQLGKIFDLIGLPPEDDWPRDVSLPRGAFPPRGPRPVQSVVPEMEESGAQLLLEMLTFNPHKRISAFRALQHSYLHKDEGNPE
Chain of CDK4/cyclin D1 (P24385 whole entry partner): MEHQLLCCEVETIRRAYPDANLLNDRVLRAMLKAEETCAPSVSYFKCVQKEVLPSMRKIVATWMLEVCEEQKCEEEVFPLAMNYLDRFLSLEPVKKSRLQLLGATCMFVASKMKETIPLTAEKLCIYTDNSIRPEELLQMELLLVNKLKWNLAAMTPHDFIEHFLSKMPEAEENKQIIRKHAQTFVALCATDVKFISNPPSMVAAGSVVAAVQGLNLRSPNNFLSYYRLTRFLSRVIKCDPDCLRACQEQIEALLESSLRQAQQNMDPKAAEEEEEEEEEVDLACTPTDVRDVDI
For orientation: TR-FRET usually uses a lanthanide donor and a delayed reading to cut background.

Assay [1] concerns phosphorylation of pRb at the Ser780 site in JeKo-1 mantle cell lymphoma cells. Kind of assay: CDK4 cellular assay: ELISA of pRb phosphorylation at Ser780 in JeKo-1 cells. In kind it is cell-based. (In general: ELISA stands for enzyme-linked immunosorbent assay.)
In the next assay the target is CDK1/cyclin B (Homo sapiens (Human), UniProt P06493). Nature of the assay: CDK1/cyclin B enzymatic activity assay (IMAP-FP). It counts as biochemical. The note with it: […] CDK1/cyclin B, 100 nM Tamra Histone-H1 peptide, 20 μM ATP, 120 min at room temperature; read-out: Biochemical CDK1 enzyme IC50. From the text: CDK1/Cyclin B Enzymatic Activity Assay
Chain of CDK1/cyclin B (P06493 whole entry, species assumed): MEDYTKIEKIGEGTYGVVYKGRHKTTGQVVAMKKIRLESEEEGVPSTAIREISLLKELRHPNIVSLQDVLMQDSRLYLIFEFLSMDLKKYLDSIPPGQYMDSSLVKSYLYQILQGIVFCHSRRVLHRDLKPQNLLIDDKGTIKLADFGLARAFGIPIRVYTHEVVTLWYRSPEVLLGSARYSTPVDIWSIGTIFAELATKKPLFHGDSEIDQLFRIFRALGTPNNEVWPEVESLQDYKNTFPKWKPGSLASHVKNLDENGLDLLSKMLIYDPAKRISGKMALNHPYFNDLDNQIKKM
Chain of CDK1/cyclin B (P14635 whole entry partner, species assumed): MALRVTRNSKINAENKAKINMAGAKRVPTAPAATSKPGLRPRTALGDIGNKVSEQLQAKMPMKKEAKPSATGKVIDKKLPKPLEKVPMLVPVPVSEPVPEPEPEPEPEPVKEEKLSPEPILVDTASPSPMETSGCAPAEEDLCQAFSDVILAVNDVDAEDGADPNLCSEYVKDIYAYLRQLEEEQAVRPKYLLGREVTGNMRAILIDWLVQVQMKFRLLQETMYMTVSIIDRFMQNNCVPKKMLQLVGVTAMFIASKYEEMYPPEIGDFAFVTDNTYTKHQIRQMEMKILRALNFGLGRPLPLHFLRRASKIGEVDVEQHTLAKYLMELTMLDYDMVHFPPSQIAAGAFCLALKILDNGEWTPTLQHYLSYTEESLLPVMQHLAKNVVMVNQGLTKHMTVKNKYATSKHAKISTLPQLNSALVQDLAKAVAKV
A 384-well microtiter IMAP-FP™ (Molecular Devices Trade Mark Technology) endpoint assay was used for CDK1/cyclin B kinase activity measurements. The same assay was used for IC50 determination of small molecule inhibitors.

[2] abbreviates: 0.3 nM CDK4/cyclin D1, 150 nM biotin-pRb (773-924), 3 μM ATP, 60 min at 22° C., read-out: Biochemical CDK4 enzyme IC50.
Setting [3] is: Homo sapiens, JeKo-1, JeKo-1 cells, p-pRb % inhibition adjusted with total pRb levels, read-out: Normalized cellular ppRb inhibition IC50.
The mark [4] stands for this setting: Homo sapiens, JeKo-1, JeKo-1 cells, p-pRb Ser780 ELISA, non-normalized, read-out: Cellular ppRb inhibition IC50.
[5] abbreviates: Homo sapiens, JeKo-1 cells, p-pRb % inhibition adjusted with total pRb levels, read-out: Normalized cellular ppRb inhibition IC50.
The mark [6] stands for this setting: Homo sapiens, JeKo-1 cells, p-pRb Ser780 ELISA, non-normalized, read-out: Cellular ppRb inhibition IC50.

For `CN(C)C(=O)c1cc2cnc(Nc3ccc(C(=O)N4CC5CCC(C4)N5)cn3)nc2n1C1CCCCC1` [Example 66, 7-Cyclohexyl-2-[5-(3,8-diaza-bicyclo[3.2.1]octane-3-carbonyl)-pyridin-2-ylamino]-7H-pyrrolo[2,3-d]pyrimidine-6-carboxylic acid dimethylamide], the IC50 on CDK4/cyclin D1 (setting [2]) is 4 to 7 nM; in assay [1] (setting [3]), 41 nM; in assay [1] (setting [4]) it was 38 nM; at CDK1/cyclin B, more than 15000 nM.

`CN(C)C(=O)c1cc2cnc(Nc3ccc(C(=O)N4[C@@H]5CC[C@H]4C[C@H](O)C5)cn3)nc2n1C1CCCC1` [Example 43, 7-Cyclopentyl-2-[5-((1S,3S,5R)-3-hydroxy-8-aza-bicyclo[3.2.1]octane-8-carbonyl)-pyridin-2-ylamino]-7H-pyrrolo[2,3-d]pyrimidine-6-carboxylic acid dimethylamide]: the IC50 at CDK4/cyclin D1 (setting [2]) is 176 to 198 nM; in assay [1] (JeKo-1 cells, p-pRb % inhibition adjusted with total pRb levels, read-out: Normalized cellular ppRb inhibition IC50) it was 469 to 1280 nM; in assay [1] (JeKo-1 cells, p-pRb Ser780 ELISA, non-normalized, read-out: Cellular ppRb inhibition IC50), 461 to 745 nM; on CDK1/cyclin B, more than 15000 nM.

As to `CC(=O)N1C2CCC1CN(C(=O)c1ccc(Nc3ncc4cc(C(=O)N(C)C)n(C5CCCC5)c4n3)nc1)C2` [Example 27, 2-(5-(8-acetyl-3,8-diazabicyclo[3.2.1]octane-3-carbonyl)pyridin-2-ylamino)-7-cyclopentyl-N,N-dimethyl-7H-pyrrolo[2,3-d]pyrimidine-6-carboxamide], the IC50 is 46 nM on CDK4/cyclin D1 (setting [2]), 201 nM in assay [1] (setting [5]), 194 nM in assay [1] (setting [6]) and more than 15000 nM on CDK1/cyclin B.

On to `CN(C)C(=O)c1cc2cnc(Nc3ccc(C(=O)N4CC5CCC(C4)N5)cn3)nc2n1[C@H]1CC[C@H](C(C)(C)C)CC1` [Example 37, 7-(4-tert-Butyl-cyclohexyl)-2-[5-(3,8-diaza-bicyclo[3.2.1]octane-3-carbonyl)-pyridin-2-ylamino]-7H-pyrrolo[2,3-d]pyrimidine-6-carboxylic acid dimethylamide], for which the IC50 was 5 to 6 nM at CDK4/cyclin D1, 288 to 438 nM in assay [1] (setting [3]), 121 to 301 nM in assay [1] (setting [4]) and more than 15000 nM on CDK1/cyclin B.

On to `CN(C)C(=O)c1cc2cnc(Nc3ccc(C(=O)N4CC5CCC(C4)N5C(=O)CN)cn3)nc2n1C1CCCC1` [Example 60, 2-{5-[8-(2-Amino-acetyl)-3,8-diaza-bicyclo[3.2.1]octane-3-carbonyl]-pyridin-2-ylamino}-7-cyclopentyl-7H-pyrrolo[2,3-d]pyrimidine-6-carboxylic acid dimethylamide], for which the IC50 at CDK4/cyclin D1 (setting [2]) was 19 nM; in assay [1] (setting [5]), 47 nM; in assay [1] (setting [6]), 21 nM; at CDK1/cyclin B it was more than 15000 nM.

Turning to `Cc1nc(Nc2ncc3cc(C(=O)N(C)C)n(C4CCCC4)c3n2)ccc1C(=O)N1CC2CCC(C1)N2` [Example 50, 7-Cyclopentyl-2-[5-(3,8-diaza-bicyclo[3.2.1]octane-3-carbonyl)-6-methyl-pyridin-2-ylamino]-7H-pyrrolo[2,3-d]pyrimidine-6-carboxylic acid dimethylamide], the IC50 on CDK4/cyclin D1 (setting [2]) is 21 nM; in assay [1] (setting [3]), 90 nM; in assay [1] (setting [4]), 41 nM; on CDK1/cyclin B, more than 15000 nM.

Regarding `CN(C)C(=O)c1cc2cnc(Nc3ccc(N4CC5CCC(C4)N5)cn3)nc2n1C1CCCC1` [Example 112, 7-Cyclopentyl-2-[5-(3,8-diaza-bicyclo[3.2.1]oct-3-yl)pyridin-2-ylamino]-7H-pyrrolo[2,3-d]pyrimidine-6-carboxylic acid dimethylamide], the IC50 on CDK4/cyclin D1 (setting [2]) was 11 to 34 nM; in assay [1] (setting [5]) it was 231 nM; in assay [1] (setting [6]) it was 92 nM; at CDK1/cyclin B, more than 15000 nM.

For `CN1CC2(C)CN(C(=O)c3ccc(Nc4ncc5cc(C(=O)N(C)C)n(C6CCCC6)c5n4)nc3)CC(C)(C1)C2O` (centres unmarked) [Example 39, 7-Cyclopentyl-2-(5-(9-hydroxy-1,5,7-trimethyl-3,7-diazabicyclo[3.3.1]nonane-3-carbonyl)pyridin-2-ylamino)-N,N-dimethyl-7H-pyrrolo[2,3-d]pyrimidine-6-carboxamide], the IC50 is 77 nM at CDK4/cyclin D1 (setting [2]), 136 nM in assay [1] (setting [5]), 79 nM in assay [1] (setting [6]) and more than 15000 nM at CDK1/cyclin B.

As a reminder, the IC50 is the point on the concentration scale where inhibition reaches its midpoint.
